# Laboratory results taken from patent US12162890B2 (Novartis AG, priority 2015, dated 2024).
# Biological target: HEK293 cells with stable expression of the GRIN1 gene and tetracycline-inducible expression of the GRIN2B gene (NMDA receptor, NR2B) (Homo sapiens, UniProt Q13224)
# Test: Fluo-8 Ca2+ flux assay: reversal of Ro 25-6981-mediated suppression of the Ca2+ response to co-agonist (glutamate/glycine); further: test concentration or dose not given here
# Assay type: cell-based
# Conditions: reversal of the Ro 25-6981 suppression of the Ca2+ response to co-agonist (glutamate/glycine)
# Chain of HEK293 cells with stable expression of the GRIN1 gene and tetracycline-inducible expression of the GRIN2B gene (NMDA receptor, NR2B) (Q13224 27-1484, other chains not shown): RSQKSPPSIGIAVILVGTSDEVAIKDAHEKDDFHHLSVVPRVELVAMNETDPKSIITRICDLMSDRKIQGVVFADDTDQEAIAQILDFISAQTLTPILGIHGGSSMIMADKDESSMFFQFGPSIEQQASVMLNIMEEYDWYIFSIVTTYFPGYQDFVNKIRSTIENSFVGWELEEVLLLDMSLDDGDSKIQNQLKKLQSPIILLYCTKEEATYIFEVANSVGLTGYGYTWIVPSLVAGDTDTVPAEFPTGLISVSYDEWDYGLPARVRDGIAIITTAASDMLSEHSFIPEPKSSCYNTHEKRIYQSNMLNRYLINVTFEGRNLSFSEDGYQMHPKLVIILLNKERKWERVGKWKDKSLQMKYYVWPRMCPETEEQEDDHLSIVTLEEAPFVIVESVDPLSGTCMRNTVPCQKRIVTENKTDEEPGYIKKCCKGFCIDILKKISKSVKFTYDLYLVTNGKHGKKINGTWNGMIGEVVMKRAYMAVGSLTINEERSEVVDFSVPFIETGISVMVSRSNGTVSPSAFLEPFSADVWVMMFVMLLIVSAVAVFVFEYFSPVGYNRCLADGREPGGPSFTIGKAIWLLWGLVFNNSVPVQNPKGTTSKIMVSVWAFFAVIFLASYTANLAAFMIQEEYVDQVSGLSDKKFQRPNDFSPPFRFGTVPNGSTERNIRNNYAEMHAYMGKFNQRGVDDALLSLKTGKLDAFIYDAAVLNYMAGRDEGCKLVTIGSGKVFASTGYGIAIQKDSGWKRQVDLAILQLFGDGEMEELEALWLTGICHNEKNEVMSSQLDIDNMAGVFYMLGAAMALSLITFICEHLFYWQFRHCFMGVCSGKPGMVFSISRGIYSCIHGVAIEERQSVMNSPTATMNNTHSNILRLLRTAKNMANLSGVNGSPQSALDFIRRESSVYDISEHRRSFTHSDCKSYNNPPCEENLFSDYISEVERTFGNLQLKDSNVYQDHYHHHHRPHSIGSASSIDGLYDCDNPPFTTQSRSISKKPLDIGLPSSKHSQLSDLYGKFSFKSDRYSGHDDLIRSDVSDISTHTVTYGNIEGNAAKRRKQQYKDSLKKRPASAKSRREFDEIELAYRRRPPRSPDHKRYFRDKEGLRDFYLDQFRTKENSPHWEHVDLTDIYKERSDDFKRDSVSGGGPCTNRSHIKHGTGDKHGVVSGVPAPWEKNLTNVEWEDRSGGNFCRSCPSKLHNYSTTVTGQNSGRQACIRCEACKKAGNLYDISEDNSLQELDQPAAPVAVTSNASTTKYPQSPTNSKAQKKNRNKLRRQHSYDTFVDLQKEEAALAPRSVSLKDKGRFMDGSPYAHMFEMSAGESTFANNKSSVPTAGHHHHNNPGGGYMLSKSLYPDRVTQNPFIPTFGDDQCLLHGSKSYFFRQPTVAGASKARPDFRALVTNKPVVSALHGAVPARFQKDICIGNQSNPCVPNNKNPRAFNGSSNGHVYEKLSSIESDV
row,SMILES,Response Recovered (%)
1,"O=C(Cn1cnc2[nH]cc(-c3ccc(Cl)c(Cl)c3)c2c1=O)N1CCC(F)C1 (stereo not shown) [Example 175, 5-(3,4-dichlorophenyl)-3-(2-(3-fluoropyrrolidin-1-yl)-2-oxoethyl)-3H-pyrrolo[2,3-d]pyrimidin-4(7H)-one]",77%
2,"O=C(Cn1cnc2[nH]cc(-c3ccc(C(F)(F)F)c(Cl)c3)c2c1=O)N1CCC(F)C1 (stereo not shown) [Example 176, 5-(3-chloro-4-(trifluoromethyl)phenyl)-3-(2-(3-fluoropyrrolidin-1-yl)-2-oxoethyl)-3H-pyrrolo[2,3-d]pyrimidin-4(7H)-one]",63%
3,"O=C(Cn1cnc2[nH]cc(-c3ccc(Cl)c(C(F)(F)F)c3)c2c1=O)N1CCC(F)C1 (stereo not shown) [Example 177, 5-(4-chloro-3-(trifluoromethyl)phenyl)-3-(2-(3-fluoropyrrolidin-1-yl)-2-oxoethyl)-3H-pyrrolo[2,3-d]pyrimidin-4(7H)-one]",85%
4,"O=C(Cn1cnc2[nH]cc(-c3cnc(Cl)c(Cl)c3)c2c1=O)N1CCC(F)C1 (stereo not shown) [Example 180, 5-(5,6-dichloropyridin-3-yl)-3-(2-(3-fluoropyrrolidin-1-yl)-2-oxoethyl)-3H-pyrrolo[2,3-d]pyrimidin-4(7H)-one]",15%
5,O=C(Cn1cnc2[nH]cc(-c3ccc(Cl)c(C(F)(F)F)c3)c2c1=O)N1C[C@@H](F)[C@@H](F)C1 [Example 181],69%
6,"O=C(Cn1cnc2[nH]cc(-c3cnc(Cl)c(C(F)(F)F)c3)c2c1=O)N1CC(F)(F)C1 [Example 182, 5-(6-chloro-5-(trifluoromethyl)pyridin-3-yl)-3-(2-(3,3-difluoroazetidin-1-yl)-2-oxoethyl)-3H-pyrrolo[2,3-d]pyrimidin-4(7H)-one]",18%
7,"O=C(Cn1cnc2[nH]cc(-c3cnc(Cl)c(C(F)(F)F)c3)c2c1=O)N1CCC(F)C1 (stereo not shown) [Example 183, 5-(6-chloro-5-(trifluoromethyl)pyridin-3-yl)-3-(2-(3-fluoropyrrolidin-1-yl)-2-oxoethyl)-3H-pyrrolo[2,3-d]pyrimidin-4(7H)-one]",14%
8,"C[Si](C)(C)CCOCn1cc(-c2ccc(Cl)c(C(F)(F)F)c2)c2c(=O)n(CC(=O)N3CCC(F)C3)ccc21 (stereo not shown) [Example 199, 3-(4-chloro-3-(trifluoromethyl)phenyl)-5-(2-(3-fluoropyrrolidin-1-yl)-2-oxoethyl)-1-((2-(trimethylsilyl)ethoxy)methyl)-1H-pyrrolo[3,2-c]pyridin-4(5H)-one]",47%
9,"C[Si](C)(C)CCOCn1cc(-c2ccc(Cl)c(C(F)(F)F)c2)c2c(=O)n(CC(=O)N3CC(F)(F)C3)ccc21 [Example 200, 3-(4-chloro-3-(trifluoromethyl)phenyl)-5-(2-(3,3-difluoroazetidin-1-yl)-2-oxoethyl)-1-((2-(trimethylsilyl)ethoxy)methyl)-1H-pyrrolo[3,2-c]pyridin-4(5H)-one]",18%
10,"C[Si](C)(C)CCOCn1cc(-c2ccc(Cl)c(F)c2)c2c(=O)n(CC(=O)N3CCCC3)ccc21 [Example 201, 3-(4-chloro-3-fluorophenyl)-5-(2-oxo-2-(pyrrolidin-1-yl)ethyl)-1-((2-(trimethylsilyl)ethoxy)methyl)-1H-pyrrolo[3,2-c]pyridin-4(5H)-one]",62%
11,"C[Si](C)(C)CCOCn1cc(-c2ccc(Cl)c(F)c2)c2c(=O)n(CC(=O)N3CCC(F)C3)ccc21 (stereo not shown) [Example 202, 3-(4-chloro-3-fluorophenyl)-5-(2-(3-fluoropyrrolidin-1-yl)-2-oxoethyl)-1-((2-(trimethylsilyl)ethoxy)methyl)-1H-pyrrolo[3,2-c]pyridin-4(5H)-one]",32%
12,"O=C(Cn1ccc2[nH]cc(-c3ccc(Cl)c(C(F)(F)F)c3)c2c1=O)N1CCC(F)C1 (stereo not shown) [Example 203, 3-(4-chloro-3-(trifluoromethyl)phenyl)-5-(2-(3-fluoropyrrolidin-1-yl)-2-oxoethyl)-1H-pyrrolo[3,2-c]pyridin-4(5H)-one]",42%
13,"O=C(Cn1ccc2[nH]cc(-c3ccc(Cl)c(F)c3)c2c1=O)N1CCC(F)C1 (stereo not shown) [Example 204, 3-(4-chloro-3-fluorophenyl)-5-(2-(3-fluoropyrrolidin-1-yl)-2-oxoethyl)-1H-pyrrolo[3,2-c]pyridin-4(5H)-one]",47%
14,"C[Si](C)(C)CCOCn1cc(-c2ccc(F)c(Cl)c2)c2c(=O)n(CC(=O)N3CCCC3)ccc21 [Example 205, 3-(3-chloro-4-fluorophenyl)-5-(2-oxo-2-(pyrrolidin-1-yl)ethyl)-1-((2-(trimethylsilyl)ethoxy)methyl)-1H-pyrrolo[3,2-c]pyridin-4(5H)-one]",59%
15,"C[Si](C)(C)CCOCn1cc(-c2ccc(F)c(Cl)c2)c2c(=O)n(CC(=O)N3CCC(F)C3)ccc21 (stereo not shown) [Example 206, 3-(3-chloro-4-fluorophenyl)-5-(2-(3-fluoropyrrolidin-1-yl)-2-oxoethyl)-1-((2-(trimethylsilyl)ethoxy)methyl)-1H-pyrrolo[3,2-c]pyridin-4(5H)-one]",107%

# Now from value to compound:
row,Response Recovered (%),SMILES
1,54%,"O=C(Cn1cnc2[nH]cc(-c3ccc(F)c(Cl)c3)c2c1=O)N1CCC(F)C1 (stereo not shown) [Example 178, 5-(3-chloro-4-fluorophenyl)-3-(2-(3-fluoropyrrolidin-1-yl)-2-oxoethyl)-3H-pyrrolo[2,3-d]pyrimidin-4(7H)-one]"
2,37%,"O=C(Cn1cnc2[nH]cc(-c3ccc(Cl)c(F)c3)c2c1=O)N1CCC(F)C1 (stereo not shown) [Example 179, 5-(4-Chloro-3-fluoro-phenyl)-3-[2-(3-fluoro-pyrrolidin-1-yl)-2-oxo-ethyl]-3,7-dihydro-pyrrolo[2,3-d]pyrimidin-4-one]"
3,66%,CCn1cc(-c2ccc(F)c(C(F)(F)F)c2)c2c(=O)n(CC(=O)N3CCC(F)C3)cnc21 (stereo not shown) [Example 184]
4,76%,"COCCn1cc(-c2ccc(Cl)c(C(F)(F)F)c2)c2c(=O)n(CC(=O)N3CCCC3)cnc21 [Example 185, 5-(4-chloro-3-(trifluoromethyl)phenyl)-7-(2-methoxyethyl)-3-(2-oxo-2-(pyrrolidin-1-yl)ethyl)-3H-pyrrolo[2,3-d]pyrimidin-4(7H)-one]"
5,18%,"COCCn1cc(-c2ccc(F)c(Cl)c2)c2c(=O)n(CC(=O)N3CCCC3)cnc21 [Example 186, 5-(3-chloro-4-fluorophenyl)-7-(2-methoxyethyl)-3-(2-oxo-2-(pyrrolidin-1-yl)ethyl)-3H-pyrrolo[2,3-d]pyrimidin-4(7H)-one]"
6,9%,"COCCn1cc(-c2ccc(Cl)c(F)c2)c2c(=O)n(CC(=O)N3CCCC3)cnc21 [Example 187, 5-(4-chloro-3-fluorophenyl)-7-(2-methoxyethyl)-3-(2-oxo-2-(pyrrolidin-1-yl)ethyl)-3H-pyrrolo[2,3-d]pyrimidin-4(7H)-one]"
7,53%,"COCCn1cc(-c2ccc(F)c(C(F)(F)F)c2)c2c(=O)n(CC(=O)N3CCC(F)C3)cnc21 (stereo not shown) [Example 188, 5-(4-fluoro-3-(trifluoromethyl)phenyl)-3-(2-(3-fluoropyrrolidin-1-yl)-2-oxoethyl)-7-(2-methoxyethyl)-3H-pyrrolor[2,3-d]pyrimidin-4(7H)-one]"
8,39%,"COCn1cc(-c2ccc(F)c(C(F)(F)F)c2)c2c(=O)n(CC(=O)N3CCC(F)C3)cnc21 (stereo not shown) [Example 189, 5-(4-fluoro-3-(trifluoromethyl)phenyl)-3-(2-(3-fluoropyrrolidin-1-yl)-2-oxoethyl)-7-(methoxymethyl)-3H-pyrrolo[2,3-d]pyrimidin-4(7H)-one]"
9,71%,"O=C(Cn1cnc2c(c(-c3ccc(Cl)c(C(F)(F)F)c3)cn2C2CC2)c1=O)N1CCCC1 [Example 190, 5-(4-chloro-3-(trifluoromethyl)phenyl)-7-cyclopropyl-3-(2-oxo-2-(pyrrolidin-1-yl)ethyl)-3H-pyrrolo[2,3-d]pyrimidin-4(7H)-one]"
10,36%,"O=C(Cn1cnc2c(c(-c3ccc(Cl)c(F)c3)cn2C2CC2)c1=O)N1CCCC1 [Example 191, 5-(4-chloro-3-fluorophenyl)-7-cyclopropyl-3-(2-oxo-2-(pyrrolidin-1-yl)ethyl)-3H-pyrrolo[2,3-d]pyrimidin-4(7H)-one]"
11,42%,"O=C(Cn1cnc2c(c(-c3ccc(F)c(Cl)c3)cn2C2CC2)c1=O)N1CCCC1 [Example 192, 5-(3-chloro-4-fluorophenyl)-7-cyclopropyl-3-(2-oxo-2-(pyrrolidin-1-yl)ethyl)-3H-pyrrolo[2,3-d]pyrimidin-4(7H)-one]"
12,2%,"O=C(Cn1cnc2c(c(-c3ccc(Cl)c(C(F)(F)F)c3)cn2CCO)c1=O)N1CCCC1 [Example 194, 5-(4-chloro-3-(trifluoromethyl)phenyl)-7-(2-hydroxyethyl)-3-(2-oxo-2-(pyrrolidin-1-yl)ethyl)-3H-pyrrolo[2,3-d]pyrimidin-4(7H)-one]"
13,21%,"O=C(Cn1cnc2c(c(-c3ccc(F)c(Cl)c3)cn2CCO)c1=O)N1CCCC1 [Example 195, 5-(3-chloro-4-fluorophenyl)-7-(2-hydroxyethyl)-3-(2-oxo-2-(pyrrolidin-1-yl)ethyl)-3H-pyrrolo[2,3-d]pyrimidin-4(7H)-one]"
14,34%,"O=C(Cn1cnc2c(c(-c3ccc(F)c(C(F)(F)F)c3)cn2CCO)c1=O)N1CCC(F)C1 (stereo not shown) [Example 196, 5-(4-fluoro-3-(trifluoromethyl)phenyl)-3-(2-(3-fluoropyrrolidin-1-yl)-2-oxoethyl)-7-(2-hydroxyethyl)-3H-pyrrolo[2,3-d]pyrimidin-4(7H)-one]"
15,7%,O=C(Cn1cnc2c(c(-c3ccc(Cl)c(F)c3)cn2CCO)c1=O)N1CCCC1 [Example 197]
16,104%,"O=C(Cn1ccc2[nH]cc(-c3ccc(Cl)c(C(F)(F)F)c3)c2c1=O)N1CCCC1 [Example 198, 3-(4-chloro-3-(trifluoromethyl)phenyl)-5-(2-oxo-2-(pyrrolidin-1-yl)ethyl)-1H-pyrrolo[3,2-c]pyridin-4(5H)-one]"
